Assay results: patent publication US6685617B1, “Inhibitors of α4β1 mediated cell adhesion” (Pharmacia & Upjohn Company, priority 1998, dated 2004)
Structures can show the parent of a compound that is named as a salt.

Legend:
[1] = target: T1, α4β1 integrin (Jurkat T-cell adhesion to IL-1 stimulated endothelial cell monolayers) (Homo sapiens, UniProt P05556+P13612); experiment: Jurkat-endothelial cell adhesion assay (Jurkat EC); format: cell-based; settings: Jurkat cells on IL-1 stimulated human umbilical vein endothelial cells; read-out: JK/EC (Jurkat EC Assay IC50 value range)
T1 construct: a T-cell line, Jurkat, known to express the α4β1 integrin; host or cells: Jurkat T-cell line
T1 sequence (P13612 34-1032): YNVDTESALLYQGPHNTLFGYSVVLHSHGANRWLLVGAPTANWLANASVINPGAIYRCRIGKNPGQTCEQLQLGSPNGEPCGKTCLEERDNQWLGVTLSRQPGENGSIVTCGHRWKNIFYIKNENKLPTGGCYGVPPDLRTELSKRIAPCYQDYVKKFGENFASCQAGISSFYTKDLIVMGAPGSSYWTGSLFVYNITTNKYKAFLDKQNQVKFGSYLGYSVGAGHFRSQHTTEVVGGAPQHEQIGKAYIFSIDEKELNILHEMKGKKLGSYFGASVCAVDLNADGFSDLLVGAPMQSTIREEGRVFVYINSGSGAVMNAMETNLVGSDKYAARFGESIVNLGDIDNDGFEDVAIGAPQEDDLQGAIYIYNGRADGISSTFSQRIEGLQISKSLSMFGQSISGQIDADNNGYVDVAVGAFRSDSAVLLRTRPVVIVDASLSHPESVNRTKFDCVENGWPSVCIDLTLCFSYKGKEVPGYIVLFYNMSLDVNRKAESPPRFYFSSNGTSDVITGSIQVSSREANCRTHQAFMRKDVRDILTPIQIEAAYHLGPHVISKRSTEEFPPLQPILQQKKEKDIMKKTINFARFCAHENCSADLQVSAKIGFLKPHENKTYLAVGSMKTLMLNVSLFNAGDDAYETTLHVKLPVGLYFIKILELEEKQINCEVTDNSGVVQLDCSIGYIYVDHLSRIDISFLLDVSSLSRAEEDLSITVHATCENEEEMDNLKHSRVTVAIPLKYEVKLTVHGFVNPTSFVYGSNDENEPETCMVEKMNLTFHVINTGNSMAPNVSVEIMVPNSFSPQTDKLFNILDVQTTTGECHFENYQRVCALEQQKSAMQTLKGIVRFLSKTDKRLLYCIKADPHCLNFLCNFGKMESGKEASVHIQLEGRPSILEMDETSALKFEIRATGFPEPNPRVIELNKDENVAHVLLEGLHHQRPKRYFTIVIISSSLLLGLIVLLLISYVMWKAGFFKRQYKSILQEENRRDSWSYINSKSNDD
T1 sequence (P05556 21-798): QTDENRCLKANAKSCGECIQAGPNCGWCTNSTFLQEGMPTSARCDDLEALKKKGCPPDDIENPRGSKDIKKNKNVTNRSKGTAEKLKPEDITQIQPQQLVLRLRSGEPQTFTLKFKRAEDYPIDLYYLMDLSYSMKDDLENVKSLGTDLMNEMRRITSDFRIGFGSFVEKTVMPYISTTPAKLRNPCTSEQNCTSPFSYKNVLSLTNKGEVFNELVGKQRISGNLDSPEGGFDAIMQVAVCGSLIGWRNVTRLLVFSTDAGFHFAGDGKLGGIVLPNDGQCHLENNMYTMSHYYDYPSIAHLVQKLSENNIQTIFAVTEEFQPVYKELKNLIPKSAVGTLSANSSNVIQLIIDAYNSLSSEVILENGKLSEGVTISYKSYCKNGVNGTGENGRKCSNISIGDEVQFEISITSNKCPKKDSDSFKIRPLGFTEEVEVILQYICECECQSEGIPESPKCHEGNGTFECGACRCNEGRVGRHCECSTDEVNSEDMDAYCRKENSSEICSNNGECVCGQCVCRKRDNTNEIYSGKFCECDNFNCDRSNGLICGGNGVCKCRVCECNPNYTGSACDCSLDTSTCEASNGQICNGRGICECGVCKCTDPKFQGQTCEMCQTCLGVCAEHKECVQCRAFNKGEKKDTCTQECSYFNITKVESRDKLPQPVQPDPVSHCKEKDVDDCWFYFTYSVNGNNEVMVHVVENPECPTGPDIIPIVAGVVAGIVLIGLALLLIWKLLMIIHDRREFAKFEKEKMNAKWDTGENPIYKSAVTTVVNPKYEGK
Summary of the method: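 Adhesion was expressed as percent of compound-free fluorescence after 20 min at 37° C (following 5 min settling on ice) of BCECF-loaded Jurkat T cells on washed HUVEC monolayers. The endothelium, passage 6 or lower, had received 0.1 ng/ml recombinant IL-1 for 4 hr at 37° C; compound was premixed with the T cells, typically at 100, 20, 5 and 1.25 μM.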

[2] = target: T2, α4β1 integrin (Jurkat cell adhesion to immobilized CS-1 derived peptide CLHPGEILDVPST) (Homo sapiens, UniProt P05556+P13612); experiment: Jurkat-CS-1 assay; format: cell-based; settings: Jurkat cells on CS-1 peptide coated plates; read-out: JK/CS-1 (Jurkat CS-1 Assay IC50 value range)
T2 construct: 100 μl of Jurkat cells (2.5×10^6 cells/ml) in DMEM plus BSA; host or cells: Jurkat T-cell line
T2 sequence (P13612 34-1032): as the sequence (P13612 34-1032) above
T2 sequence (P05556 21-798): as the sequence (P05556 21-798) above
Summary of the method: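 CS-1 peptide was SPDP-crosslinked onto HSA-coated plates and blocked with BSA. Jurkat cells (2.5×10^6 cells/ml) in DMEM/BSA were mixed with compound, generally at 100, 20, 5 and 1.25 μM, and allowed to adhere for 1 hr at 37° C. Bound cells were fixed, stained with toluidine blue and quantified by OD590.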

Row | Compound | IC50 [1] | IC50 [2]
1 | COC(=O)[C@H](Cc1ccc(NC(=O)c2c(Cl)cccc2Cl)cc1)NC(=O)[C@H]1CSC(C)(C)N1C(C)=O [Example 83, N-[[(4S)-3-Acetyl-2,2-dimethyl-4-thiazolidinyl]carbonyl]-4-[(2,6-dichlorobenzoyl)amino]-L-phenylalanine Methyl Ester] | ≥ 1000 nM | 50 to 750 nM
2 | COC(=O)[C@H](Cc1ccc(NC(=O)c2c(Cl)cccc2Cl)cc1)NC(=O)[C@@H]1CSCCN1 [Example 97] | ≥ 1000 nM | ≥ 750 nM
3 | COC(=O)[C@H](Cc1ccc(NC(=O)c2c(Cl)cccc2Cl)cc1)NC(=O)[C@@H]1CSCCN1C(=O)CCc1nnn[nH]1 [Example 102, 4-[(2,6-Dichlorobenzoyl)amino]-N-[[(3R)-4-[1-oxo-3-(1H-tetrazol-5-yl)propyl]-3-thiomorpholinyl]carbonyl]-L-phenylalanine Methyl Ester] | ≥ 1000 nM | ≥ 750 nM
4 | N#CCCC(=O)N1CCSC[C@H]1C(=O)N[C@@H](Cc1ccc(NC(=O)c2c(Cl)cccc2Cl)cc1)C(=O)O [Example 104, N-[[(3R)-4-(3-Cyano-1-oxopropyl)-3-thiomorpholinyl]carbonyl]-4-[[2,6-dichlorobenzoyl)amino]-L-phenylalanine] | ≥ 1000 nM | 50 to 750 nM
5 | CN1C(=O)CCC1(CCC(=O)O)CCC(=O)N[C@@H](Cc1ccc(OCc2c(Cl)cccc2Cl)cc1)C(=O)O (stereo partly drawn) [Example 107, 2-[3-[[(1S)-1-Carboxy-2-[4-[(2,6-dichlorophenyl)methoxy]phenyl]ethyl]amino]-3-oxo-propyl]-1-methyl-5-oxo-2-pyrrolidinepropanoic Acid] | ≥ 1000 nM | 50 to 750 nM
6 | CC(C)=CCN1C(=O)CCC1(CCC(=O)O)CCC(=O)N[C@@H](Cc1ccc(OCc2c(Cl)cccc2Cl)cc1)C(=O)O (stereo partly drawn) [Example 109, 2-[3-[[(1S)-1-Carboxy-2-[4-[(2,6-dichlorophenyl)methoxy]phenyl]ethyl]amino]-3-oxo-propyl]-1-(3-methyl-2-butenyl)-5-oxo-2-pyrrolidinepropanoic Acid] | ≥ 1000 nM | ≥ 750 nM
7 | O=C(O)CCC1(CCC(=O)N[C@@H](Cc2ccc(OCc3c(Cl)cccc3Cl)cc2)C(=O)O)CCC(=O)N1 (stereo partly drawn) [Example 113, 2-[3-[[(1S)-1-Carboxy-2-[4-[(2,6-dichlorophenyl)methoxy]phenyl]ethyl]amino]-3-oxo-propyl]-5-oxo-2-pyrrolidinepropanoic Acid] | ≥ 1000 nM | 50 to 750 nM
8 | COC(=O)CCC1(CCC(=O)N[C@@H](Cc2ccc(NC(=O)c3c(Cl)cccc3Cl)cc2)C(=O)OC)CCC(=O)N1 (stereo partly drawn) [Example 114, 2-[3-[[(1S)-1-[[4-[(2,6-Dichlorobenzoyl)amino]phenyl]methyl]-2-methoxy-2-oxoethyl]amino]-3-oxopropyl]-5-oxo-2-pyrrolidinepropanoic Acid Methyl Ester] | ≥ 1000 nM | ≥ 750 nM
9 | O=C(O)CCC1(CCC(=O)N[C@@H](Cc2ccc(NC(=O)c3c(Cl)cccc3Cl)cc2)C(=O)O)CCC(=O)N1 (stereo partly drawn) [Example 115] | ≥ 1000 nM | 50 to 750 nM
10 | COC(=O)[C@H](Cc1ccc(OCc2c(Cl)cccc2Cl)cc1)NC(=O)CCC1(C(=O)O)CCC(=O)N1 (stereo partly drawn) [Example 116, 2-[3-[[(1S)-1-[[4-[(2,6-Dichlorophenyl)methoxy]phenyl]methyl]-2-methoxy-2-oxoethyl]amino]-3-oxopropyl]-5-oxoproline] | ≥ 1000 nM | ≥ 750 nM
11 | O=C(CCC1(C(=O)O)CCC(=O)N1)N[C@@H](Cc1ccc(OCc2c(Cl)cccc2Cl)cc1)C(=O)O (stereo partly drawn) [Example 117, 2-[3-[[(1S)-1-Carboxy-2-[4-[(2,6-dichlorophenyl)methoxy]phenyl]ethyl]amino]-3-oxo-propyl]-5-oxoproline] | ≥ 1000 nM | 50 to 750 nM
12 | CC(C)(C)OC(=O)N1CSC[C@@H]1C(=O)N[C@@H](Cc1ccc(OCc2c(Cl)cccc2Cl)c(Cl)n1)C(=O)O [Example 119, [S-(R*,R*)]-4-[[1-Carboxy-2-[[2-Chloro-3-[(2,6-dichlorophenyl)methoxy]-6-pyridyl]ethyl]amino]carbonyl]-3-thiazolidinecarboxylic Acid (1,1-Dimethylethyl)ester] | ≥ 1000 nM | ≥ 750 nM
13 | CC(C)(C)OC(=O)N1CSCC1C(=O)NC(Cc1ccc(OCc2c(Cl)cccc2Cl)cn1)C(=O)O (stereo not drawn) [Example 121, [S-(R*,R*)]-4-[[[1-Carboxy-2-[3-[(2,6-dihlorophenyl)methoxy]-6-pyridyl]ethyl]amino]carbonyl]-3-thiazolidinecarboxylic Acid (1,1-Dimethylethyl)ester] | ≥ 1000 nM | 50 to 750 nM
14 | CC(C)(C)OC(=O)N1CSC[C@@H]1C(=O)N[C@@H](Cc1ccc(N(C(=O)c2c(Cl)cccc2Cl)C(=O)c2c(Cl)cccc2Cl)nc1)C(=O)O [Example 123, [S-(R*,R*)]-4-[[[[1-Carboxy-2-[2-[[bis-(2,6-dichlorobenzoyl)]amino]-5-pyridyl]]ethyl]amino]carbonyl]-3-thiazolidinecarboxylic Acid (1,1-Dimethylethyl)ester] | ≥ 1000 nM | ≥ 750 nM
15 | COC(=O)[C@H](Cc1ccc(NC(=O)c2c(Cl)cccc2Cl)cc1)NC(=O)[C@@H]1COCN1C(=O)OCc1ccccc1 [Example 124, [S-(R*,R*)]-4-[[[1-[[4-[(2,6-Dichlorobenzoyl)amino]phenyl]methyl]-2-methoxy-2-oxoethyl]amino]carbonyl]-3-oxazolidinecarboxylic Acid 3-Phenylmethyl Ester] | ≥ 1000 nM | ≥ 750 nM
16 | COC(=O)[C@H](Cc1ccc(NC(=O)c2c(Cl)cccc2Cl)cc1)NC(=O)[C@H]1COCN1C(=O)OCc1ccccc1 [Example 126, [R-(R*S*)]-4-[[[1-[[4-[(2,6-Dichlorobenzoyl)amino]phenyl]methyl]-2-methoxy-2-oxoethyl]amino]carbonyl]-3-oxazolidinecarboxylic Acid 3-Phenylmethyl Ester] | ≥ 1000 nM | ≥ 750 nM

Next, values leading:

Row | IC50 [1] | IC50 [2] | Compound
17 | ≤ 250 nM | ≤ 50 nM | CC(=O)N1[C@@H](C(=O)N[C@@H](Cc2ccc(NC(=O)c3c(Cl)cccc3Cl)cc2)C(=O)O)CSC1(C)C [Example 84, N-[[(4S)-3-Acetyl-2,2-dimethyl-4-thiazolidinyl]carbonyl]-4-[(2,6-dichlorobenzoyl)amino]-L-phenylalanine]
18 | ≥ 1000 nM | ≥ 750 nM | COC(=O)[C@H](Cc1ccc(NC(=O)c2c(Cl)cccc2Cl)cc1)NC(=O)[C@@H]1N(C(C)=O)C(C)(C)SC1(C)C [Example 87, N-[[(4S)-3-Acetyl-2,2,5,5-tetramethyl-4-thiazolidinyl]carbonyl]-4-[(2,6-dichlorobenzoyl)amino]-L-phenylalanine Methyl Ester]
19 | ≥ 1000 nM | ≥ 750 nM | O=C(NO)[C@H](Cc1ccc(OCc2c(Cl)cccc2Cl)cc1)NC(=O)[C@H]1CSCN1C(=O)OCCN1CCOCC1 [Example 91]
20 | ≥ 1000 nM | ≥ 750 nM | CCOC(=O)N1CSC[C@@H]1C(=O)N[C@@H](Cc1ccc(OCc2c(Cl)cccc2Cl)cc1)C(=O)NO [Example 92]
21 | ≥ 1000 nM | ≥ 750 nM | O=C(NO)[C@H](Cc1ccc(OCc2c(Cl)cccc2Cl)cc1)NC(=O)[C@H]1CSCN1C(=O)OCCN1CCCCC1 [Example 93]
22 | ≥ 1000 nM | ≥ 750 nM | COC(=O)[C@H](Cc1ccc(NC(=O)c2c(Cl)cccc2Cl)cc1)NC(=O)[C@@H]1CSCCN1C(=O)OC(C)(C)C [Example 96]
23 | 250 to 1000 nM | 50 to 750 nM | O=C(Nc1ccc(C[C@H](NC(=O)[C@@H]2CSCCN2)C(=O)O)cc1)c1c(Cl)cccc1Cl [Example 101, 4-[(2,6-Dichlorobenzoyl)amino]-N-[[(3R)-3-thiomorpholinyl]carbonyl]-L-phenylalanine Monohydrochloride]
24 | 250 to 1000 nM | ≤ 50 nM | O=C(Nc1ccc(C[C@H](NC(=O)[C@@H]2CSCCN2C(=O)CCc2nnn[nH]2)C(=O)O)cc1)c1c(Cl)cccc1Cl [Example 103, 4-[(2,6-Dichlorobenzoyl)amino]-N-[[(3R)-4-[1-oxo-3-(1H-tetrazol-5-yl)propyl]-3-thiomorpholinyl]-carbonyl]-L-phenylalanine]
25 | 250 to 1000 nM | 50 to 750 nM | CN1C(=O)CCC1(CCC(=O)O)CCC(=O)N[C@@H](Cc1ccc(NC(=O)c2c(Cl)cccc2Cl)cc1)C(=O)O (stereo partly drawn) [Example 111, 2-[3-[[(1S)-1-Carboxy-2-[4-[(2,6-dichlorobenzoyl)amino]phenyl]ethyl]amino]-3-oxo-propyl]-1-methyl-5-oxo-2-pyrrolidinepropanoic Acid]
26 | 250 to 1000 nM | 50 to 750 nM | O=C(Nc1ccc(C[C@H](NC(=O)[C@@H]2COCN2C(=O)OCc2ccccc2)C(=O)O)cc1)c1c(Cl)cccc1Cl [Example 125, [S-(R*,R*)]-4-[[[1-Carboxy-2-[4-[(2,6-dichlorobenzoyl)amino]phenyl]ethyl]amino]-carbonyl]-3-oxazolidinecarboxylic Acid 3-Phenylmethyl Ester]
27 | ≤ 250 nM | 50 to 750 nM | O=C(Nc1ccc(C[C@H](NC(=O)[C@H]2COCN2C(=O)OCc2ccccc2)C(=O)O)cc1)c1c(Cl)cccc1Cl [Example 127, [R-(R*,S*)]-4-[[[1-Carboxy-2-[4-[(2,6-dichlorobenzoyl)amino]phenyl]ethyl]amino]-carbonyl]-3-oxazolidinecarboxylic Acid 3-(Phenylmethyl)ester]
